The source of these data is patent US6992105B2, “Dipeptide derivatives” (Novartis AG, priority 2001, dated 2006).

Ends that are not written are not given here.

System in one data set: not given
Test: not given
Conditions: not given
Compound `CC(C)[C@H](S)C(=O)NC1(C(=O)N[C@@H](COCc2ccccc2)C(=O)O)CCCC1` [Example 6(b), N-[1-[(S)-2-mercapto-3-methylbutanoylamino]-cyclopentanecarbonyl]-O-benzyl-L-serine] returned a melting point of 132 to 136 °C.

Regarding `CC(C)[C@H](S)C(=O)NC(C)(C)C(=O)N[C@@H](CCOc1ccc(F)cc1)C(=O)O` [Example 6(g), N-[2-[(S)-2-mercapto-3-methylbutanoylamino]-2-methylpropionyl]-O-(4-fluorophenyl)-L-homoserine], the melting point lay within 127 to 128 °C.

`CCOC(=O)[C@@H](NC(=O)C(C)(C)NC(=O)[C@@H](SC(C)=O)C(C)C)[C@@H](C)OCc1ccccc1` [Example 1(c), N-[2-[(S)-2-acetylthio-3-methylbutanoylamino]-2-methylpropionyl]-O-benzyl-L-threonine ethyl ester]: the melting point was in the range of 121 to 122 °C.

As for `CC(C)(NC(=O)[C@@H](S)C(C)(C)C)C(=O)N[C@@H](COCc1ccccc1)C(=O)O` [Example 6(e), N-[2-[(S)-2-mercapto-3,3-dimethylbutanoylamino]-2-methylpropionyl]-O-benzyl-L-serine], the melting point was 128 to 130 °C.

`CC(C)[C@H](S)C(=O)NC(C)(C)C(=O)N[C@H](C(=O)O)[C@@H](C)OCc1ccccc1` [Example 6(d), N-[2-[(S)-2-mercapto-3-methylbutanoylamino]-2-methylpropionyl]-O-benzyl-L-threonine] gave a melting point of 61 to 64 °C.

`CCOC(=O)[C@H](COCc1ccccc1)NC(=O)C(C)(C)NC(=O)[C@@H](SC(=O)CN1CCN(C)CC1)C(C)C` [Example 1(q), N-[2-[(S)-2-[(4-methylpiperazino)acetylthio]-3-methylbutanoylamino]-2-methylpropionyl]-O-benzyl-L-serine ethyl ester] showed a melting point of 95 to 96 °C.

On to `CC(C)[C@H](S)C(=O)NC(C)(C)C(=O)N[C@@H](CCOc1cccc(F)c1)C(=O)O` [Example 6(h), N-[2-[(S)-2-mercapto-3-methylbutanoylamino]-2-methylpropionyl]-O-(3-fluorophenyl)-L-homoserine], for which the melting point lay in the range of 50 to 56 °C.

Compound `CC(C)[C@H](S)C(=O)NC(C)(C)C(=O)N[C@@H](CSCc1ccccc1)C(=O)O` [Example 6(c), N-[2-[(S)-2-mercapto-3-methylbutanoylamino]-2-methylpropionyl]-S-benzyl-L-cysteine] yielded a melting point of 81 to 87 °C.

Consider `CCOC(=O)[C@H](COCc1ccccc1)NC(=O)C(C)(C)NC(=O)[C@@H](SC(=O)Cn1cncn1)C(C)C` [Example 1(p), N-[2-[(S)-2-[(1-(1,2,4)-triazolyl)acetylthio]-3-methylbutanoylamino]-2-methylpropionyl]-O-benzyl-L-serine ethyl ester], for which the melting point was in the range of 106 to 107 °C.

As for `CC(C)[C@H](S)C(=O)NC(C)(C)C(=O)N[C@@H](COCc1ccc(F)cc1)C(=O)O` [Example 6(f), N-[2-[(S)-2-mercapto-3-methylbutanoylamino]-2-methylpropionyl]-O-(4-fluorobenzyl)-L-serine], the melting point lay within 50 to 54 °C.

With `CC(C)(NC(=O)[C@@H](S)C1CCOCC1)C(=O)N[C@@H](COCc1ccccc1)C(=O)O` [Example 6(j), N-[2-[(S)-2-mercapto-2-(4-tetrahydropyranyl)acetylamino]-2-methylpropionyl]-O-benzyl-L-serine], the melting point was in the range of 184 to 189 °C.

The next data set concerns the target rabbit antibodies that recognize specifically the carboxyl terminal tryptophan of ET-1. The data set can be described thus: radioimmunoassay: displacement of [125I]ET-1 binding to anti-ET-1 antibodies. The conditions noted are these: mean±SEM, n=3–5. As for the experimental part: Diluted samples (200 μL) obtained from the above enzyme assay are incubated at 4° C. overnight with 25 μL each of [^125I]ET-1 (10,000 cpm/tube) and 1:20,000-fold diluted rabbit antibodies that recognize specifically the carboxyl terminal tryptophan of ET-1. Goat anti-rabbit antibodies coupled to magnetic beads (70 μg) are then added to each tube, and the reaction mixture is further incubated for 30 minutes at room temperature. The beads are pelleted using a magnetic rack. The supernatant is decanted, and the radioactivity in the pellet is counted in a gamma counter. Total and nonspecific binding are measured in the absence of non-radioactive ET-1 and anti-ET antibodies, respectively.
“big ET-1: human big ET-1, substrate of ECE-1 in the enzyme assay (CSCSSLMDKECVYFCHLDIIWVNTPEHVVPYGLGSPRS; ends and bridges not checked; cysteine pairing not given here; UniProt P05305 53-90, looked up)”: the “IC50 for displacement of [125I]ET-1 binding to the antibodies” value is 260,000±66,000 fmol.

Consider “ET-1: endothelin-1, non-radioactive peptide formed from big ET-1 by ECE; standard in the RIA”, for which the “IC50 for displacement of [125I]ET-1 binding to the antibodies” value amounted to 21 ± 2 fmol.
